Experimental data taken from patent US12528774B2, “Thiosemicarbazone compounds and uses thereof” (The Regents of the University of California, priority 2019, dated 2026).

Key:
[1] = test system: electron transport chain complexes of isolated mitochondria; assay: Electron flow assay in isolated mitochondria; format: biochemical, mouse; settings: HCT-13 + Cu(II) 20 μM
Procedure: FIG. 3A: Mito Stress Test of MIAPACA2 PDAC cells treated with HCT13 (25 nM)+Cu(II) (20 μM) for 24h. FIG. 3B: electron flow assay in isolated mitochondria treated with HCT-13 (100 nM)+Cu(II) (20 μM) for 1h. FIG. 3C: viability of 143 BTK parental (wild type, WT) and ρ0 cells after 48h of the indicated HCT13 concentration+Cu(II) (20 μM) treatment, assessed with Trypan Blue Staining. FIG. 3D: 48h cell cycle histogram and plots of S-phase arrest plots in 143 BTK WT and 143 BTK ρ0 cells at 24, 48 and 72h following treatment with indicated concentrations of HCT13+Cu(II)(20 μM). (mean±SD, n=2, one-way ANOVA corrected for multiple comparisons by Bonferroni adjustment, * P<0.05; ** P<0.01; *** P<0.001). […]
Mito Stress Test and Electron Flow Assay: All oxygen consumption rate (OCR) was measured using a XF24 Analyzer (Agilent) and normalized per μg protein. […] OCR was measured before (total respiration) and after the sequential injection of 1 μM oligomycin (complex V inhibitor), 0.75 μM FCCP (uncoupler), and 1 μM of rotenone and myxothiazol (complex I and III inhibitors, respectively), as described previously (1). Mitochondrial respiration was calculated by subtracting the non-mitochondrial respiration left after rotenone and myxothiazol injection. […] OCR was measured before and after the sequential injections described in the previous paragraph. […]

143 BTK WT cells = assay: Cell cycle analysis in 143 BTK WT cells; format: cell-based; settings: HCT13 + Cu(II) 20 μM
Procedure: FIG. 3A: Mito Stress Test of MIAPACA2 PDAC cells treated with HCT13 (25 nM)+Cu(II) (20 μM) for 24h. FIG. 3B: electron flow assay in isolated mitochondria treated with HCT-13 (100 nM)+Cu(II) (20 μM) for 1h. FIG. 3C: viability of 143 BTK parental (wild type, WT) and ρ0 cells after 48h of the indicated HCT13 concentration+Cu(II) (20 μM) treatment, assessed with Trypan Blue Staining. FIG. 3D: 48h cell cycle histogram and plots of S-phase arrest plots in 143 BTK WT and 143 BTK ρ0 cells at 24, 48 and 72h following treatment with indicated concentrations of HCT13+Cu(II)(20 μM). (mean±SD, n=2, one-way ANOVA corrected for multiple comparisons by Bonferroni adjustment, * P<0.05; ** P<0.01; *** P<0.001).
Another HCT compound, Dp44mT, was reported to increase AMPK expression and induce ROS, although its cytotoxicity was not attributed to the functionality of the mitochondria. (Ref 50). To determine whether the cytotoxicity of HCT13 was mitochondria-dependent, its effects upon 143 BTK ρ0, an mtDNA-deficient fibroblast cell line, was examined. Both 143 BTK ρ0 and parental (wild type, WT) cells were treated with HCT13+20 μM Cu(II) for 48 hours, after which cell viability was determined through trypan blue staining (FIG. 3C).
Cell cycle: Cell cycle was assessed using Propidium iodide staining at indicated timepoints. Cells were pulsed with EdU 1 h before collection at different time points. […]

## CN(C)C(=S)N/N=C/c1nccc2cc(F)ccc12 (mixture of isomers) [HCT13, (E)-2-((6-Fluoroisoquinolin-1-yl)methylene)-N,N-dimethylhydrazine-1-carbothioamide and (Z)-2-((6-Fluoroisoquinolin-1-yl)methylene)-N,N-dimethylhydrazine-1-carbothioamide]
[1]
  mitochondrial ETC complex activity: decreased activity of complexes I and II
[1]; listed as HCT-13
  mitochondrial ETC complex activity: ETC Complex 1 was most dramatically affected
143 BTK WT cells
  S-phase arrest: marked S-phase arrest
